Experimental findings from patent US20160339008A1, “METHODS OF TREATING OR PREVENTING VASCULAR DISEASES OF THE RETINA” (Children's Medical Center Corporation, priority 2013, published 2016) are described below.

The subject of data set [1] is aortic rings (macrovascular sprouting). The data set is described as follows: Aortic ring sprouting assay (ex vivo aortic ring explants). The data set is classed as cell-based, mouse. The method, then: Tie2-CYP2C8Tg, Tie2-sEHTg, sEH−/− mice and littermate wild-type mice were anesthetized and perfused intracardiacly with warm PBS. Aortae were dissected free, cut into 1-mm-thick rings and embedded in 304, of growth factor-reduced Matrigel™ (BD Biosciences, Cat. 354230) in 24-well tissue culture plates. 5004, CSC complete medium (Cell Systems, Cat. 420-500) activated with growth factor Boost, was then added to each well and incubated at 37° C. with 5% CO2 for 48 hours before any treatment. Medium contained 5 units/mL of Penicillin/Streptomycin (GIBCO, Cat. 15142) to prevent contamination.
DHA (Cayman Chemical, Cat. 90310, 30 μM) and AA (Cayman Chemical, Cat. 90010, 30 μM) were introduced to the culture medium 48 hours after seeding of aortic ring from Tie2-CYP2C8Tg and littermate wild-type control. 17(18)-EpETE (EEQ) (Cayman Chemical, Cat. 50861, 1 μM), 19(20)-EpDPE (EDP) (Cayman Chemical, Cat. 10175, 1 μM) and 14,15-EE-8(Z)-E (EET) (Cayman Chemical, Cat. 10010486, 1 μM) were administered to the culture medium 48 hours after seeding of aortic ring from Tie2-sEHTg, sEH−/− and their wild-type littermate controls. Medium was changed every 48 hours for all groups. Phase contrast photos of individual explants were taken 168 hours after plating (120 hours after treatment) using a ZEISS Axio Oberver.Z1 microscope. The areas of macrovascular sprouting were quantified with computer software ImageJ 1.46r (National Institute of Health). A semi-automated macro plugin for quantification of vessel sprouts is available from the authors.

For data set [2], the system named is human retinal microvascular endothelial cells (HRMEC). The data set is described as follows: HRMEC migration. The settings on record: for rescue of the inhibition of HRMEC migration by FA: with FA. In kind it is cell-based.
Data set [3] has the same test system. Description: HRMEC tubule formation. The data set is classed as cell-based.
For data set [4], the system named is neovascularization (NV) in oxygen-induced retinopathy. Description: Oxygen-induced retinopathy (OIR) mouse model, quantification of retinal neovascularization. The data set is classed as in vivo. Conditions: for magnitude of the extent of reduction in NV, Cyp2C8 Tg mice compared to WT mice: 10 mg/kg/day GV, mice fed ω3 (n3) or ω6 (n6). The procedure:
Mouse model of OIR is described^13. C57BL/6J mice were analyzed by immunohistochemistry, real-time PCR, western blot, blood smear and LC/MS/MS oxylipid analysis. Mothers of Cyp and sEH mutant mice were fed ω3PUFA or ω6PUFA-enriched diets in OIR followed by analysis of retina, plasma and aortic ring sprouting.
The mouse model of oxygen-induced retinopathy has been previously described (Smith et al. Invest Ophthalmol Vis Sci 35: 101-111). To induce vessel loss, mice were exposed to 75% oxygen from postnatal day 7 (P7) to P12. The central retinal vessel obliteration induced by hyperoxic exposure will trigger an excessive angiogenic response that causes neovascularization. Mice were given lethal doses of Avertin (Sigma) intraperitoneally at P17 when the neovascular response is greatest.
For dietary experiments, polyunsaturated fatty acids (PUFAs), arachidonic acid (AA) and docosahexaenoic acid (DHA) supplements under the trade names ROPUFA, ARASCO and DHASCO, respectively, were obtained from DSM Nutritional Products (dsmnutritionalproducts.com) and were integrated into the rodent feed at Research Diets Incorporated (researchdiets.com/). […] Upon delivery, dams were fed a defined rodent diet with 10% (w/w) safflower oil containing either 2% ω-6 PUFAs (AA) and no ω-3 PUFAs (DHA and EPA), or 2% ω-3 PUFAs and no ω-6 PUFAs.
OIR eyes were enucleated and fixed in 4% paraformaldehyde for 1 hour at 4° C. Retinas were dissected and stained overnight at 23° C. with Alexa Fluor 594 fluoresceinated Griffonia Bandereiraea Simplicifolia Isolectin B4 (Molecular Probes, Cat. 121413, 1:100 dilution) in 1 mM CaCl2 in PBS. Following 2 hours of washes, retinas were whole-mounted onto Superfrost/Plus microscope slides (Fisher, Cat. 12-550-15) with the photoreceptor side up and embedded in SlowFade Antifade reagent (Invitrogen, Cat. S2828). For quantification of retinal neovascularization, 20 images of each whole-mounted retina were obtained at 5× magnifications on a Zeiss AxioObserver.Z1 microscope and merged to form one image with AxioVision 4.6.3.0 software. Vaso-obliteration was quantified using Adobe Photoshop and neovascularization was analysed with the SWIFT_NV method on ImageJ 1.46r (NIH) software, as described previously (Stahl et al. Angiogenesis 12: 297-301).

Turning to `CC/C=C\C/C=C\C/C=C\C/C=C\C/C=C\C/C=C\CCC(=O)O` [DHA, docosahexaenoic acid], the “aortic sprouting, Tie2-CYP2C8-Tg versus WT” value in data set [1] (DHA treatment 30 μM) is listed as “increased sprouting”.

Take `CC(C)(O)c1ccccc1CC[C@@H](SCC1(CC(=O)O)CC1)c1cccc(/C=C/c2ccc3ccc(Cl)cc3n2)c1` [montelukast]: the HRMEC migration entry in data set [2] is reported as “inhibited”. In addition, the HRMEC tubule formation result in data set [3] is reported as “clear dose-response curves”. Also, in data set [4], the “magnitude of the extent of reduction in NV, Cyp2C8 Tg mice compared to WT mice” value is given as “enhanced in mice that overexpressed CYP2C8”. In data set [4] (JAX (WT) mice, normal feed, dose not given), the neovascularization result is reported as “reduced in a statistically significant manner”.

In the case of `CCCCC/C=C\C/C=C\C/C=C\C/C=C\CCCC(=O)O` [AA, arachidonic acid], the “potentiation of aortic sprouting, AA vs. DHA” value in data set [1] (30 μM, Tie2-CYP2C8-Tg rings) is “abolished”. Moreover, in data set [1] (30 μM, WT rings), the “aortic sprouting, AA vs. DHA” value is recorded as “potentiated aortic sprouting”.

On to `CCC1OC1C/C=C\C/C=C\C/C=C\C/C=C\CCCC(=O)O` (stereo not shown) [17,18-EEQ, 17(18)-EpETE], for which the “rescue of the inhibition of HRMEC migration by FA” value in data set [2] is given as “partially rescuing”. For the same compound, the “aortic ring sprouting compared between WT, Tie2-sEH-Tg and sEH−/− mice” value in data set [1] (1 μM) was “no difference”.

`CCC(=O)NC[C@H](Cc1ccc(OCCc2nc(-c3ccccc3)oc2C)cc1)N/C(C)=C\C(=O)c1ccc(C(F)(F)F)cc1` [GW6471]: the “impact upon the effect of fenofibrate on HRMEC migration” value in data set [2] (with FA/fenofibrate) is recorded as “no impact”. The “impact upon the effect of fenofibrate on HRMEC tubule formation” value in data set [3] (with fenofibrate) was “no impact”. Besides, the “impact upon the effect of FA on aortic ring sprouting” value in data set [1] (rings from WT and Cyp2C8 Tg mice, with FA) was “no impact”.

For the compound `CCCCCC1OC1C/C=C\C/C=C\C/C=C\CCCC(=O)O` (stereo not shown) [14,15-EET, 14,15-EE-8(Z)-E], the “aortic ring sprouting compared between WT, Tie2-sEH-Tg and sEH−/− mice” value in data set [1] (1 μM) was “similar”.

For the compound `CCC1OC1C/C=C\C/C=C\C/C=C\C/C=C\C/C=C\CCC(=O)O` (stereo not shown) [19,20-EDP, 19(20)-EpDPE], the “rescue of the inhibition of HRMEC migration by FA” value in data set [2] is recorded as “partially rescuing”. Besides, the “rescue of the inhibition of HRMEC tubule formation by FA” value in data set [3] (with FA) is on record as “partially rescued”. In data set [1] (1 μM), the “less sprouting, treated Tie2-sEH-Tg aortic ring versus WT” value came out at 50%. In addition, in data set [1] (rings from WT & Cyp2C8 Tg mice, with FA), the “rescue of FA inhibition of aortic ring sprouting” value is recorded as “partially rescued”.

`CC(C)OC(=O)C(C)(C)Oc1ccc(C(=O)c2ccc(Cl)cc2)cc1` [fenofibrate]: the HRMEC tubule formation result in data set [3] was “inhibit HRMEC tubule formation”. Besides, the “magnitude of the extent of reduction in NV, Cyp2C8 Tg mice compared to WT mice” value in data set [4] is “enhanced in mice that overexpressed CYP2C8”. Moreover, the neovascularization result in data set [4] (Cyp2C8 overexpressing transgenic (Tg) mice, ω3 and ω6 LCPUFA feed, low dose) is on record as “decreased neovascularization”; in data set [4] (WT mice, ω3 and ω6 LCPUFA feed, low dose), “decreased neovascularization”. In addition, the “neovascularization (NV)” value in data set [4] (JAX (WT) mice, normal feed, high dose 100 mg/kg/day GV) is recorded as “significant reduction in neovascularization”; in data set [4] (JAX (WT) mice, normal feed, low dose 10 mg/kg/day GV), “significant reduction in neovascularization”; in data set [4] (PPARα knockout mice, normal feed, high dose 100 mg/kg/day GV), “significant reduction in neovascularization”; in data set [4] (PPARα knockout mice, normal feed, low dose 10 mg/kg/day GV), “significant reduction in neovascularization”.
